In patent publication US6406868B1, “AMPA-binding human GluR1 receptors” (priority 1992, dated 2002):

Columns and labels:
[1] = tested on: human GluR1B receptor; assay: AMPA-binding assay with membranes of transfected COS-1 cells; settings: 10 nM [3H]-AMPA; membrane preparations from human GluR1B receptor-producing COS cells; non-specific binding with 1 mM L-glutamate; FIG. 3
Experimental: (§1) Transfected cells in the frozen state were resuspended in ice-cold distilled water using a hand homogenizer, sonicated for 5 seconds, and then centrifuged for 20 minutes at 50,000 g. The supernatant was discarded and the membrane pellet stored frozen at −70° C.
(§2) COS cell membrane pellets were suspended in ice cold 5 mM Tris-HCI (pH 7.55, 5C) and centrifuged again at 50,000 g for 10 minutes in order to remove endogenous glutamate that would compete for binding. Pellets were resuspended in ice cold 50 mM Tris-HCl (pH 7.55) buffer and the resultant membrane preparation was used as tissue source for binding experiments described below. Proteins were determined using the Pierce Reagent with BSA as standard.
Binding assays were then performed, using an amount of COS-derived membrane equivalent to from 25-100 ug as judged by protein determination and selected radiolabelled ligand. In particular, for AMPA-binding assays, incubation mixtures consisted of 25-100 ug tissue protein and D,L-alpha-[5-methyl-3H]amino-3-hydroxy-5-methylisoxazole-4-propionic acid (3H-AMPA, 27.6Ci/mmole, 10 nM final) with 0.1 M KSCN and 2.5 mM CaCl2 in the 1 ml final volume. Non-specific binding was determined in the presence of 1 mM L-glutamate. […] Pellets were washed twice in 4 ml of the cold incubation buffer, then 5 ml of Beckman Ready-Protein Plus scintillation cocktail was added, for counting.

[2] = tested on: human GluR1B receptor; assay: NMDA binding to membranes of transfected COS-1 cells; settings: membrane preparations from human GluR1B receptor-producing COS cells
Experimental: as §1, §2

[3] = tested on: human GluR1B receptor; assay: kainate-binding assay with membranes of transfected COS-1 cells; settings: [vinylidene-3H] kainic acid 5 nM; membrane preparations from human GluR1B receptor-producing COS cells
Experimental: as §1, §2
For kainate-binding assays, incubation mixtures consisted of 25-100 ug tissue protein and [vinylidene-3H] kainic acid (58Ci/mmole, 5 nM final) in the cold incubation buffer, 1 ml final volume. Non-specific binding was determined in the presence of 1 mM L-glutamate. Samples were incubated as for the AMPA-binding assays, and bound and free ligand were separated by rapid filtration using a Brandel cell harvester and GF/B filters pre-soaked in ice-cold 0.3% polyethyleneimine. Filters were washed twice in 6 ml of the cold incubation buffer, then placed in scintillation vials with 5 ml of Beckman Ready-Protein Plus scintillation cocktail for counting.

[3H]Cc1onc(O)c1CC(N)C(=O)O (racemic) [[3H]-AMPA, D,L-alpha-[5-methyl-3H]amino-3-hydroxy-5-methylisoxazole-4-propionic acid]
specific binding [1]: 100-150 fmole/mg protein

CN[C@H](CC(=O)O)C(=O)O [NMDA, N-methyl-D-aspartate]
binding of NMDA [2]: little or no demonstrable binding

C=C(C)[C@H]1CN[C@H](C(=O)O)[C@H]1CC(=O)O [kainate, [vinylidene-3H] kainic acid]
binding of kainate [3]: little or no demonstrable binding
